What was measured:
Format in all cases: cell-based, human
STAT3/DNMT1 interaction = assay: IP assay: endogenous STAT3/DNMT1 interaction in U87 cells; conditions: C16 for 2 h, n = 3, p < 0.01
Procedure: (§1) Figure 7 Peptide derived from the STAT3‐binding sites of SHF is an effective GBM suppressive strategy. A) Binding model between SHF and STAT3 using ZDOCK server. […] B) IF staining determined the cell penetrability and nuclear‐localization of C16. U251 cells were incubated with C16 or SC for 2 h and performed IF staining using the indicated antibodies. Bars, 10 µm. C) The statical analysis of adsorption equilibrium assay detecting the binding of C16 and SC with recombinant STAT3. D) Pull‐down assay indicating C16 binds STAT3. GST‐STAT3 was incubated with C16 or SC for 2 h, and the pull‐down assay was performed using Anti‐His magnetic beads. E) IP assay showing the effect of C16 on STAT3 dimerization. 293T cells transfected with indicated vectors were incubated with C16 for 2 h. The relative quantification of STAT3 dimerization was listed. F) IP assay detecting the effect of C16 on the interaction of STAT3 and DNMT1. […] The relative quantification of STAT3/DNMT1 interaction was listed. […] The relative quantification of STAT3/DNMT1 interaction was listed. […] Positive cells were quantified 20 randomly selected fields per mouse (n = 6, Student's t‐test, **p < 0.01). […]
(§2) Immunoprecipitation (IP) experiments were performed to analyze the protein interactions. […] Precipitated products were analyzed by Western blot using the specified antibodies. […]

STAT3 dimerization = assay: IP assay: STAT3 dimerization in 293T cells; conditions: transfected 293T cells incubated with C16 for 2 h
Procedure: as §1, §2

U118 cells = assay: Cell growth assay (CCK-8), U118; conditions: n=6
Procedure: Cell growth was quantified using the Cell Counting Kit‐8 Assay Kit (Bimake, Houston, TX). Each experiment was repeated at least six times. For the colony formation assay, 800 cells were seeded into each well of a six‐well plate with soft agar (Agarose; Sigma, St. Louis, MO) and maintained in a medium containing 10% FBS for 14 days. The colonies were fixed with methanol and stained with 0.1% crystal violet; the clones containing at least 50 cells were counted using an inverted microscope.
Supplementary Fig. 9 C16 inhibits tumor growth and promotes chemosensitivity in vitro.
B. Colony formation of cells treated with SC or C16 (left) and the accompanying statistical
analysis (right; n=6, Student’s t-test, **P < 0.01).
C. Annexin V staining flow cytometry assay of cells simultaneously treated with Dox with SC or
C16 for 48 h (n=3, Student’s t-test, *P < 0.05, **P < 0.01).
(1 picture or pasted object on this page, not shown here)

C16: peptide spanning SHF amino acids 388–421, palmitic acid at the N-terminus, amidated C-terminus, 3× His tags added to the C-terminal (PFSSVPEIVHHYASRKLPIKGAEHMSLLYPVAIR; palmitic acid at the N-terminus; amidated C-terminus; left off: 3× His tags, C-terminal, kept)
endogenous STAT3/DNMT1 interaction (STAT3/DNMT1 interaction): decrease
inhibition of STAT3 dimerization (IP) (STAT3 dimerization): effectively inhibits STAT3 dimerization
cell growth inhibition (U118 cells): inhibited cell growth with concentration dependence
